EC50 data for 24 molecules are collected here from patent publication US11944622B2 (Annapurna Bio, Inc., priority 2018, dated 2024).

For the test, the target named is T1, APJ Receptor (Homo sapiens, UniProt P35414).
T1 sequence (P35414 1-380): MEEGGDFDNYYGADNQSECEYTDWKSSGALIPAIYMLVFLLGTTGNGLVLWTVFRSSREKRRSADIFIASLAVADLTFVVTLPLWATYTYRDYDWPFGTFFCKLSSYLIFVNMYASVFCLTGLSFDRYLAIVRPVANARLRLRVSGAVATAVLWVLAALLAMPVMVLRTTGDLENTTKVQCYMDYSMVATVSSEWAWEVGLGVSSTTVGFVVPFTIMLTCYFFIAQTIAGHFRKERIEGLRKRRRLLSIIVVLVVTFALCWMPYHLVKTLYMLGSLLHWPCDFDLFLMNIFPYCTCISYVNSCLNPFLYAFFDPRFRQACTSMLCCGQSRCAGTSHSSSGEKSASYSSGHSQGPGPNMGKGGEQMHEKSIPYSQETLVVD
In words: APJ cAMP assay (DiscoverX enzyme fragment complementation; inhibition of forskolin-stimulated cAMP). The class given is cell-based. As to conditions: CHO-K1 cell line stably expressing the APJ Receptor; EC80 forskolin; 30 minutes at 37° C.; read-out: Potency Range (APJ cAMP EC50). An excerpt:
Activation of APJ receptor is known to inhibit forskolin-stimulated cyclic AMP (cAMP) production in cells in a pertussis toxin-sensitive manner which indicates primary coupling to the GαI subunit of the G protein heterotrimeric complex. In addition to signaling through G protein and inhibition of cAMP, APJ receptor activation also results in β-arrestin recruitment, receptor internalization and activation of extracellular-regulated kinases (ERKs).
In order to optimize functional activity directed toward Gi coupling we utilized a CHO-K 1 cell line developed by DiscoverX stably expressing the APJ Receptor. Cells expressing APJR receptor were plated in a 384-well microtiter plates and incubated overnight at 37° C. with 5% CO2 to allow the cells to attach and grow. Media was then aspirated from the cells and replaced with 15 uL 2:1 Hanks Balanced Salt Solution (HBSS)/10 mM Hepes:cAMP XS+Ab reagent. Five microliters (5 uL) of previously generated compound sample stocks at 4× final concentration in assay buffer containing 4× EC80 forskolin were then added to the cells and allowed to incubate at 37° C. for 30 minutes.
After incubation the assay signal was generated using a technology termed enzyme fragment complementation (EFC). In EFC the enzyme B-galactosidase is split into two complementary portions (EA and ED). The fragment ED is fused to cAMP and in the assay format competes with endogenous cAMP for binding to a cAMP specific antibody. Activated B-Gal is formed when exogenous EA fragment binds to free ED-cAMP (not bound to cAMP specific antibody). Activated enzyme levels are detected through conversion of B-gal chemiluminescent substrate which generates a detectable luminescence signal and read on standard microtiter plate.
The methodology for detection of cAMP using EFC requires incubation with 20 uL of cAMP XS+ED/CL lysis cocktail for one hour followed by incubation with 20 uL cAMP XS+EA reagent for three hours at room temperature. Microplates were read following signal generation with a PerkinElmer Envision instrument utilizing chemiluminescent signal detection.
Compound activity was analyzed using CBIS data analysis suite (ChemInnovation, CA). Percentage activity was calculated using the following formula: % Activity=100%×(1−(mean RLU of test sample−mean RLU of Max control)/(mean RLU of vehicle control−mean RLU of Max control))
On the technique in general: Changes in cAMP serve as a functional read-out for many G protein-coupled receptors.

The structures appear in SMILES notation.

With `COc1cccc(OC)c1-n1c(-c2cncc(C)c2)nc2ncc(NS(C)(=O)=O)nc21` [Example 132, N-(1-(2,6-dimethoxyphenyl)-2-(5-methylpyridin-3-yl)-1H-imidazo[4,5-b]pyrazin-6-yl)methanesulfonamide], the EC50 (as a rule, the concentration that produces a half-maximal response) lay within 100 to 10000 nM.

On to `CCOc1cccc(-c2nc3nc(NS(C)(=O)=O)cnc3n2-c2c(OC)cccc2OC)n1` [Example 43, N-(1-(2,6-dimethoxyphenyl)-2-(6-ethoxypyridin-2-yl)-1H-imidazo[4,5-b]pyrazin-5-yl)methanesulfonamide], for which the EC50 fell in the range of 1 to 100 nM.

On to `CCOc1cccc(-c2nc3nnc(NS(=O)(=O)Cc4ncc(Cl)cn4)cc3n2-c2c(OC)cccc2OC)n1` [Example 144, 1-(5-Chloropyrimidin-2-yl)-N-(7-(2,6-dimethoxyphenyl)-8-(6-ethoxypyridin-2-yl)-7H-imidazo[4,5-c]pyridazinyl)methanesulfonamide], for which the EC50 was < 1 nM. As for `CCOc1cccc(-c2nc3ncc(NS(=O)(=O)[C@H]4CC[C@@H](O)CC4)nc3n2-c2c(OC)cccc2OC)n1` [Example 40, cis-N-(1-(2,6-dimethoxyphenyl)-2-(6-ethoxypyridin-2-yl)-1H-imidazo[4,5-b]pyrazin-6-yl)-4-hydroxycyclohexane-1-sulfonamide], the EC50 was in the range of 1 to 100 nM.

Regarding `CCOc1cccc(-c2nc3ncc(O)nc3n2-c2c(OC)cccc2C(F)(F)F)n1` [Example 47, 2-(6-ethoxypyridin-2-yl)-1-(2-methoxy-6-(trifluoromethyl)phenyl)-1H-imidazo[4,5-b]pyrazin-6-ol], the EC50 was in the range of 100 to 10000 nM. `CCOc1cccc(-c2nc3ncc(NS(=O)(=O)Cc4ncc(C)cn4)nc3n2-c2c(OC)cccc2OC)n1` [Example 80, N-(1-(2,6-dimethoxyphenyl)-2-(6-ethoxypyridin-2-yl)-1H-imidazo[4,5-b]pyrazin-6-yl)-1-(5-methylpyrimidin-2-yl)methanesulfonamide]: the EC50 is < 1 nM. To `CCOc1cccc(-c2nc3nc(NS(=O)(=O)Cc4ncc(C)cn4)cnc3n2-c2c(OC)cccc2OC)n1` [Example 91, N-(1-(2,6-Dimethoxyphenyl)-2-(6-ethoxypyridin-2-yl)-1H-imidazo[4,5-b]pyrazin-5-yl)-1-(5-methylpyrimidin-2-yl)methanesulfonamide] belongs < 1 nM.

For `CCOc1cccc(-c2nc3nc(Cl)c(NS(=O)(=O)C4CC4)nc3n2-c2c(OC)cccc2OC)n1` [Example 97, N-(5-Chloro-1-(2,6-dimethoxyphenyl)-2-(6-ethoxypyridin-2-yl)-1H-imidazo[4,5-b]pyrazin-6-yl)cyclopropanesulfonamide], the EC50 lay within 1 to 100 nM. To `CCOc1cccc(-c2nc3nc(Cl)c(NS(=O)(=O)N4CCOCC4)nc3n2-c2c(OC)cccc2OC)n1` [Example 98, N-(5-Chloro-1-(2,6-dimethoxyphenyl)-2-(6-ethoxypyridin-2-yl)-1H-imidazo[4,5-b]pyrazin-6-yl)morpholine-4-sulfonamide] belongs 1 to 100 nM; to `CCOc1cccc(-c2nc3ncc(NS(=O)(=O)Cc4ccccn4)nc3n2-c2c(OC)cccc2OC)n1` [Example 27, N-(1-(2,6-dimethoxyphenyl)-2-(6-ethoxypyridin-2-yl)-1H-imidazo[4,5-b]pyrazin-6-yl)-1-(pyridin-2-yl)methanesulfonamide], 1 to 100 nM; to `C=Cc1nc2nc(-c3cccc(OCC)n3)n(-c3c(OC)cccc3OC)c2nc1NS(C)(=O)=O` [Example 137, N-(1-(2,6-Dimethoxyphenyl)-2-(6-ethoxypyridin-2-yl)-5-vinyl-1H-imidazo[4,5-b]pyrazin-6-yl)methanesulfonamide], 1 to 100 nM. To `CCOc1cccc(-c2nc3ncc(NS(=O)(=O)C4CCC4)nc3n2-c2c(OC)cccc2OC)n1` [Example 31, N-(1-(2,6-dimethoxyphenyl)-2-(6-ethoxypyridin-2-yl)-1H-imidazo[4,5-b]pyrazin-6-yl)cyclobutanesulfonamide] belongs 1 to 100 nM. Then `CCOc1cccc(-c2nc3nc(NS(=O)(=O)N4CCOCC4)cnc3n2-c2c(OC)cccc2OC)n1` [Example 90, N-(1-(2,6-Dimethoxyphenyl)-2-(6-ethoxypyridin-2-yl)-1H-imidazo[4,5-b]pyrazin-5-yl)morpholine-4-sulfonamide], with < 1 nM; and `CCOc1cccc(-c2nc3ncc(NS(=O)(=O)Cc4ccccc4)nc3n2-c2c(OC)cccc2OC)n1` [Example 3, N-(1-(2,6-dimethoxyphenyl)-2-(6-ethoxypyridin-2-yl)-1H-imidazo[4,5-b]pyrazin-6-yl)-1-phenylmethanesulfonamide], with 1 to 100 nM. On to `CCOc1cccc(-c2nc3nc(Cl)c(NS(=O)(=O)Cc4ccc(C)c(F)c4)nc3n2-c2c(OC)cccc2OC)n1` [Example 107, N-(5-Chloro-1-(2,6-dimethoxyphenyl)-2-(6-ethoxypyridin-2-yl)-1H-imidazo[4,5-b]pyrazin-6-yl)-1-(3-fluoro-4-methylphenyl)methanesulfonamide], for which the EC50 is < 1 nM.

Regarding `CCOc1cccc(-c2nc3nc(Cl)c(NS(=O)(=O)Cc4ccc(C)cc4F)nc3n2-c2c(OC)cccc2OC)n1` [Example 100, N-(5-Chloro-1-(2,6-dimethoxyphenyl)-2-(6-ethoxypyridin-2-yl)-1H-imidazo[4,5-b]pyrazin-6-yl)-1-(2-fluoro-4-methylphenyl)methanesulfonamide], the EC50 fell in the range of 1 to 100 nM. For `CCOc1cccc(-c2nc3ncc(NS(=O)(=O)Cc4ncccn4)nc3n2-c2c(OC)cccc2OC)n1` [Example 28, N-(1-(2,6-dimethoxyphenyl)-2-(6-ethoxypyridin-2-yl)-1H-imidazo[4,5-b]pyrazin-6-yl)-1-(pyrimidin-2-yl)methanesulfonamide], the EC50 was < 1 nM. To `CCOc1cccc(-c2nc3nc(O)c(NS(C)(=O)=O)nc3n2-c2c(OC)cccc2OC)n1` [Example 135, N-(1-(2,6-Dimethoxyphenyl)-2-(6-ethoxypyridin-2-yl)-5-hydroxy-1H-imidazo[4,5-b]pyrazin-6-yl)methanesulfonamide] belongs 1 to 100 nM; to `CCOc1cccc(-c2nc3ncc(NS(=O)(=O)[C@H]4C[C@H](O)C4)nc3n2-c2c(OC)cccc2OC)n1` [Example 34, trans-N-(1-(2,6-dimethoxyphenyl)-2-(6-ethoxypyridin-2-yl)-1H-imidazo[4,5-b]pyrazin-6-yl)-3-hydroxycyclobutane-1-sulfonamide], 1 to 100 nM. Turning to `CCOc1cccc(-c2nc3nc(NS(C)(=O)=O)c(Cl)nc3n2-c2c(OC)cccc2OC)n1` [Example 138, N-(6-Chloro-1-(2,6-dimethoxyphenyl)-2-(6-ethoxypyridin-2-yl)-1H-imidazo[4,5-b]pyrazin-5-yl)methanesulfonamide], the EC50 lay in the range of 1 to 100 nM. To `CCOc1cccc(-c2nc3nc(Cl)c(NS(=O)(=O)Cc4ncc(F)cn4)nc3n2-c2c(OC)cccc2OC)n1` [Example 105, N-(5-Chloro-1-(2,6-dimethoxyphenyl)-2-(6-ethoxypyridin-2-yl)-1H-imidazo[4,5-b]pyrazin-6-yl)-1-(5-fluoropyrimidin-2-yl)methanesulfonamide] belongs < 1 nM.

On to `CCOc1cccc(-c2nc3ncc(NS(=O)(=O)Cc4cncnc4)nc3n2-c2c(OC)cccc2OC)n1` [Example 35, N-(1-(2,6-dimethoxyphenyl)-2-(6-ethoxypyridin-2-yl)-1H-imidazo[4,5-b]pyrazin-6-yl)-1-(pyrimidin-5-yl)methanesulfonamide], for which the EC50 is 1 to 100 nM. On to `CCOc1cccc(-c2nc3nnc(NS(=O)(=O)CC4CC(C)(O)C4)cc3n2-c2c(OC)cccc2OC)n1` (stereo not drawn) [Example 128, N-(5-(2,6-Dimethoxyphenyl)-6-(6-ethoxypyridin-2-yl)-5H-imidazo[4,5-c]pyridazin-3-yl)-1-(3-hydroxy-3-methylcyclobutyl)methanesulfonamide], for which the EC50 is < 1 nM.

For `CCOc1cccc(-c2nc3nnc(NS(=O)(=O)Cc4ncc(C)cn4)cc3n2-c2c(OC)cccc2OC)n1` [Example 126, N-(7-(2,6-Dimethoxyphenyl)-8-(6-ethoxypyridin-2-yl)-7H-imidazo[4,5-c]pyridazinyl)-1-(5-methylpyrimidin-2-yl)methanesulfonamide], the EC50 was < 1 nM.
